Experimental data as given in US10155041B2, “Bacterial phospholipase inhibitors as modulator of colonic bacterial flora” (Universitaetsklinikum Heidelberg, priority 2014, dated 2018).

How the values were obtained:
bacterial PLA2 = experiment: Determination of PLA2 activity in bacterial lysates (Bhat et al. 1993); assay type: biochemical
Method: FIG. 1 For determination of phospholipase A2 activity according to Bhat et al. (1993), 10 μl of aliquots of certain isolated bacterial strains prepared from fresh stool samples were incubated with arachidonoyl-thio phosphatidylcholine for 1 hour at 25° C. in a Ca^2+ free buffer as described herein. The reaction was terminated by 5,5-dithio-bis-2-nitrobenzoic acid. A405 was measured and specific PLA2 activity expressed as μmol LPC·mg^−1 protein·h^−1
Suspensions of the respective bacterial strain in 0.9% NaCl were prepared in Sarstedt tubes and adjusted to 1.0 (3×10^8CFU/ml) with opacimeter (Densimat® or Densicheck®). Subsequently, a BHI (brain heart infusion, purchased from Merck) was inoculated with 500 μl of the suspension and incubated at 37° C. aerob or in an airtight jar with BD Gas Pak™ for 16 hours overnight on a shaker. […]
PLA2 activity was determined as described by Bhat, et al. (1993).
For substrate preparation, 125 μg substrate arachidonyl PC (AAPC) was pipetted into Eppendorf reaction tubes (therefore, the volume to pipet from AAPC stocks in ethanol as supplied by Cayman Chemicals was calculated). […]
Finally, the absorption was read at 405 nm and 595 nm.
A unit of PLA2 is defined as a nmol of product formed by 1 ml sample in 1 h incubation. PLA2 activity was determined using the following formula: PLA2 activity(unit)=(OD405 nm−OD595 nm)×78.62×50

hepatic PLA2 = details: Stremmel & Staffer, 2012, et al.; cited from earlier work
[1] = tested on: host mucosal epithelial cells; experiment: Absorption from the intestinal lumen; details: intestinal lumen of the host

Substance: ursodeoxycholyl lysophosphatidylethanolamide [UDCA-LPE]
- inhibition of bacterial PLA2 (bacterial PLA2): potent inhibitors
- inhibition of bacterial phospholipase C (PLC) (phospholipase C (PLC)): shown to be inhibited
- inhibition of hepatic PLA2 (hepatic PLA2): interferes with hepatic PLA2
- absorption by host mucosal epithelial cells [1]: do not enter/are not absorbed by the host mucosal epithelial cells in a considerable amount
